Key:
Hepatitis C virus [1] = test: Antiviral activity against HCV JFH-1 infected in Huh7.5.1 cells assessed as decrease in intracellular and extracellular HCV RNA level measured after 3 days by RT-qPCR assay; assay type: functional, organism-based, Hepacivirus hominis; details: JFH-1, Huh-7.5.1, 72 h
Hepatitis C virus [2] = test: Inhibition of HCV replication in human Huh7.5 cells after 3 hrs by renilla luciferase assay; assay type: functional, cell-based, Hepacivirus hominis; details: Huh7.5, 3 h
[3] = Inhibition of Hepatitis C virus NS3 helicase measured by DNA unwinding based assay; set-up: species or system Hepacivirus hominis
Hepatitis C virus [4] = test: Antiviral activity against HCV GT-3a; assay type: functional, organism-based, Hepacivirus hominis; details: subtype 3a
[5] = Inhibition of hepatitis C virus p7 ion channel; set-up: species or system Hepacivirus hominis
[6] = target: T1, Hepatitis C virus serine protease, NS3/NS4A (Hepatitis C virus, UniProt A3EZI9+D2K2A8); test: Inhibition of HCV GT-1b NS3/4A protease measured by fluorescence assay; assay type: protein-complex assay, Hepacivirus hominis, subtype 1b
Hepatitis C virus [7] = test: Inhibition of HCV replication; assay type: functional, Hepacivirus hominis
Hepatitis C virus [8] = test: Antiviral activity against HCV GT-1b; assay type: functional, organism-based, Hepacivirus hominis; details: subtype 1b
[9] = target: T1, Hepatitis C virus serine protease, NS3/NS4A; test: Inhibition of HCV GT-3a NS3/4A protease measured by fluorescence assay; assay type: protein-complex assay, Hepacivirus hominis, subtype 3a
Hepatitis C virus [10] = test: Inhibition of HCV replicon cells; assay type: functional, Hepacivirus hominis
[11] = target: T1, Hepatitis C virus serine protease, NS3/NS4A; test: Inhibition of HCV GT-3a NS3/4A protease; assay type: protein-complex assay, Hepacivirus hominis, subtype 3a
Hepatitis C virus [12] = test: Antiviral activity against HCV JFH-1 infected in Huh7.5 cells and measured after 4 days; assay type: functional, organism-based, Hepacivirus hominis; details: JFH-1, Huh7.5, 96 h
Hepatitis C virus [13] = test: Inhibition of HCV replication in human Huh7.5 cells cultured with SGR-Neo-RLuc-JFH1-2A replicon celIs measured after 72 hrs by luciferase assay; assay type: functional, cell-based, Hepacivirus hominis; details: JFH-1, Huh7.5, 72 h
[14] = target: T1, Hepatitis C virus serine protease, NS3/NS4A; test: Inhibition of HCV GT1b recombinant NS3/4A protease using Ac-Glu-Glu-Val-Val-Ala-Cys-AMC as substrate and measured by fluorescence based assay; assay type: protein-complex assay, Hepacivirus hominis, subtype 1b
[15] = Inhibition of HCV GT1b full-length NS3/4A protease D168A mutant using Ac-Glu-Glu-Val-Val-Ala-Cys-AMC as substrate and measured by fluorescence based assay; set-up: species or system Hepacivirus hominis, subtype 1b
Hepatitis C virus [16] = test: Antiviral activity against HCV infected in Huh-7.5.1 cells assessed as inhibition of HCV production measured after 24 hrs by titration assay; assay type: functional, organism-based, Hepacivirus hominis; details: Huh-7.5.1, 24 h
[17] = Inhibition of Cy5-dT15 ssDNA to Hepatitis C virus subtype 1b (Con1) NS3 helicase measured by fluorescence polarization (FP) based ssDNA binding assay; set-up: species or system Hepacivirus hominis
Hepatitis C virus [18] = test: Antiviral activity against HCV GT-1b infected in Huh-5-2 cells and measured after 24 hrs by luciferase assay; assay type: functional, organism-based, Hepacivirus hominis; details: subtype 1b, Huh-5-2, 24 h
[19] = tested on: Internal ribosome entry site (IRES); test: Disruption of hepatitis C virus-internal ribosome entry site (IRES) RNA base stacking interaction; set-up: species or system Hepacivirus hominis
Hepatitis C virus [20] = test: Antiviral activity against HCV GT-1b infected in Huh-5-2 cells and measured after 72 hrs by luciferase assay; assay type: functional, organism-based, Hepacivirus hominis; details: subtype 1b, Huh-5-2, 72 h
Hepatitis C virus [21] = test: Antiviral activity against HCV GT-3a infected in Huh-5-2 cells and measured after 72 hrs by luciferase assay; assay type: functional, organism-based, Hepacivirus hominis; details: subtype 3a, Huh-5-2, 72 h
Hepatitis C virus [22] = test: Antiviral activity against HCV GT-3a (S52) assessed as inhibition of viral replication measured by renilla luciferase assay; assay type: functional, organism-based, Hepacivirus hominis; details: subtype 3a
Hepatitis C virus [23] = test: Antiviral activity against HCV assessed as inhibition of viral fusion and replication at attachment stage; assay type: functional, organism-based, Hepacivirus hominis
[24] = Inhibition of Hepatitis C virus NS3 protease; set-up: species or system Hepacivirus hominis
[25] = target: RNA-directed RNA polymerase (Hepacivirus hominis, UniProt O39930); test: Inhibition of Hepatitis C virus NS5B RNA-dependent-RNA-polymerase
Hepatitis C virus [26] = test: Antiviral activity against HCV GT-1a expressing NS5B C316Y mutant variant; assay type: functional, organism-based, Hepacivirus hominis; details: subtype 1a
Hepatitis C virus [27] = test: Antiviral activity against HCV GT-1a expressing NS5B S365A mutant variant; assay type: functional, organism-based, Hepacivirus hominis; details: subtype 1a
Hepatitis C virus [28] = test: Antiviral activity against HCV GT-4a; assay type: functional, organism-based, Hepacivirus hominis; details: subtype 4a

For `Cc1cc(Oc2ccc(N)cn2)ccc1Cl`, the EC50 (Hepatitis C virus [1]) was 80 nM.
Compound `O=C(NCc1ccco1)c1ccc2[nH]c(COc3ccc(C45CC6CC(CC(C6)C4)C5)cc3)nc2c1` has an EC50 (Hepatitis C virus [2]) of 1500 nM.
Compound `COc1ccc2c(c1)c(C=C1C(=O)NC(=S)NC1=O)cn2C(=O)c1cccc2ccccc12` has an IC50 [3] of 23500 nM.
Compound `COC(=O)N[C@H](C(=O)N1CCC[C@H]1c1nc(C#CC#Cc2ccc(-c3c[nH]c([C@@H]4CCCN4C(=O)[C@@H](NC(=O)OC)C(C)C)n3)cc2)c[nH]1)C(C)C` has an EC50 (Hepatitis C virus [4]) of 2.45 nM.
`O=C1CCC(C23CC4CC(CC(C4)C2)C3)=NN1c1ccccc1` showed an IC50 [5] of 520 nM.
Compound `Cc1cc(NC(=O)Cc2csc(NS(=O)(=O)c3ccccc3)n2)ccc1Br` has an IC50 [6] of 2200 nM.
Compound `CCN(CC)c1ccc(Oc2ccc(-c3[nH]c4cccc(F)c4c(=O)c3C)cc2F)cc1` has an EC50 (Hepatitis C virus [7]) of 5 nM.
Work on `O=C(N[C@@H](C(=O)N1CCC[C@H]1c1ncc(-c2ccc(-c3ccc(-c4cnc([C@@H]5CCCN5C(=O)[C@H](NC(=O)C5CC5)c5ccccc5)s4)cc3)cc2)s1)c1ccccc1)C1CC1` yielded an EC50 (Hepatitis C virus [8]) of 0.003 nM.
Work on `COc1ccc2c(c1)c(C=C1C(=O)NC(=S)NC1=O)cn2C(=O)c1ccc2ccccc2c1` yielded an IC50 [3] of 21400 nM.
For `Cc1ccc(S(=O)(=O)Nc2ccccc2C(=O)Nc2nc3c(Cl)ccc(Cl)c3s2)cc1`, the IC50 [9] was 1600 nM.
Work on `O=C1NC(=S)NC(=O)C1=Cc1cn(C(=O)c2ccc3ccccc3c2)c2ccccc12` yielded an IC50 [3] of 21600 nM.
`COC(=O)N[C@H](C(=O)N1CCC[C@H]1c1ncc(-c2ccc(C#CC#Cc3cnc([C@@H]4CCCN4C(=O)[C@H](NC(=O)OC)c4ccccc4)[nH]3)c(-c3cccc(F)c3F)c2)[nH]1)C(C)C` showed an IC50 (Hepatitis C virus [4]) of 0.016 nM.
In the case of `O=C(Nc1ccn([C@@H]2O[C@H](CO)[C@@H](O)C2(F)F)c(=O)n1)C1Cc2ccccc2C1`, the IC50 (Hepatitis C virus [10]) is reported as 10 nM.
Work on `[2H]C([2H])([2H])Oc1cc2ccnc(O[C@@H]3C[C@H]4C(=O)N[C@]5(C(=O)NS(=O)(=O)C6(C)CC6)C[C@H]5/C=C/CC[C@@H](C)C[C@@H](CC)[C@H](NC(=O)OC(C)(C)C(F)(F)F)C(=O)N4C3)c2cc1F` yielded an IC50 [11] of 4.8 nM.
`CCC[C@H](NC(=O)[C@@H]1[C@H]2CCC[C@H]2CN1C(=O)[C@@H](NC(=O)[C@@H](NC(=O)c1cnc(C(=O)NCCOCCOCCOc2cc3c4c(cccc4c2)C(=O)N(C2CCC(=O)NC2=O)C3=O)cn1)C1CCCCC1)C(C)(C)C)C(=O)C(=O)NC1CC1` (stereo partly drawn) gave an IC50 (Hepatitis C virus [12]) of 748 nM.
In the case of `O=C(Nc1ccc(C2=NCCN2)cc1)c1cc(C(=O)Nc2ccc(C3=NCCN3)cc2)cc(C(=O)Nc2ccc(C3=NCCN3)cc2)c1`, the IC50 (Hepatitis C virus [13]) is reported as 14000 nM.
Compound `CC(C)c1ccc(NC(=O)N[C@@H](Cc2c[nH]c3ccccc23)C(=O)NCCCN2CCCCC2)cc1` has an IC50 [14] of 4600 nM and an IC50 [15] of 5980 nM.
Compound `CC1(NCc2nnc(-c3cc(O)cc(O)c3)[nH]2)C2CC3CC(C2)CC1C3` (stereo not drawn) has an IC50 (Hepatitis C virus [16]) of 6420 nM.
Compound `CCCCC(O)c1cccc(=O)o1` (stereo not drawn) has an IC50 [17] of 2800 nM.
In the case of `CCOC(=O)N[C@@H](CC(C)C)C(=O)N1CCC[C@H]1C(=O)Nc1cccc(C#CC#Cc2cccc(NC(=O)[C@@H]3CCCN3C(=O)[C@H](CC(C)C)NC(=O)OCC)c2)c1`, the EC50 (Hepatitis C virus [18]) is reported as 0.0399 nM.
With `CN1CCN(CCCNc2nc3cc([N+](=O)[O-])ccc3nc2NCc2ccc(NC(=O)/C=C/c3ccc(N(C)C)cc3)cc2)CC1` the EC50 [19] was 67000 nM.
`CCOC(=O)N[C@@H](C(=O)N1CCC[C@@H]1C(=O)Nc1ccc2c(c1)Cc1cc(NC(=O)[C@H]3CCCN3C(=O)[C@H](NC(=O)OCC)c3ccccc3)ccc1-2)c1ccccc1` gave an EC50 (Hepatitis C virus [20]) of 0.036 nM and an EC50 (Hepatitis C virus [21]) of 1.2 nM.
Work on `CCCCOC(=O)N[C@H](C(=O)N1CCC[C@H]1C(=O)Nc1ccc(-c2ccc(NC(=O)[C@@H]3CCCN3C(=O)[C@@H](NC(=O)OCCCC)c3ccccc3)cc2)cc1)c1ccccc1` yielded an EC50 (Hepatitis C virus [8]) of 0.0067 nM.
Compound `COc1ccc(N/C=C2\C(=O)N(Cc3ccccc3)c3ccccc32)cc1` has an EC50 (Hepatitis C virus [4]) of 738 nM.
With `CC(C)(C)OC(=O)c1c(NC(=O)NCc2c(C(F)(F)F)sc3c2CCNC3)sc2c1CCCC2` the EC50 (Hepatitis C virus [22]) was 0.21 nM.
With `COc1ccc2cc3[n+](cc2c1OC)CCc1cc2c(cc1-3)OCO2` [BERBERINE] the EC50 (Hepatitis C virus [23]) was 7870 nM.
For `O=C(O[C@@H]1O[C@@H]2COC(=O)c3cc(O)c(O)c(O)c3-c3c(cc(O)c(O)c3O)C(=O)O[C@H]([C@H]1O)[C@@H]2O)c1cc(O)c(O)c(O)c1` [CORILAGIN], the IC50 [24] was less than 1000 nM and the IC50 [25] was 20000 nM.
For `CNC(=O)c1c(-c2ccc(F)cc2)oc2cc(N(C)S(C)(=O)=O)c(-c3ccc4c(n3)-c3cc5c(F)cccc5n3CO4)cc12` [MK-8876], the EC50 (Hepatitis C virus [26]) was 2.3 nM and the EC50 (Hepatitis C virus [27]) was 1 nM.
Compound `COC(=O)N[C@H](C(=O)N1CCC[C@H]1C(=O)Nc1ccc([C@@H]2CC[C@@H](c3ccc(NC(=O)[C@@H]4CCCN4C(=O)[C@@H](NC(=O)OC)C(C)C)cc3)N2c2ccc(C(C)(C)C)cc2)cc1)C(C)C` [OMBITASVIR] has an EC50 (Hepatitis C virus [28]) of 0.00171 nM.

Source: ChEMBL document CHEMBL5137003, “Recent advancement in small molecules as HCV inhibitors” (Bioorg Med Chem, 2022)
